Test results from patent US11926640B2, “Prodrugs of glutamine analogs” (THE JOHNS HOPKINS UNIVERSITY, priority 2015, dated 2024).
Entries after “also recorded” stand apart in the source; their conditions may differ. Structures can show the parent of a compound that is named as a salt. Blank lines part the entries; values can stand above or below the compound they belong to.

Tests used:
[1] = in vitro metabolic stability in monkey plasma; conditions: for PLASMA STABILITY Monkey: prodrug remaining within the 60 min incubation time; for stability in monkey plasma (in words): 30 min and 60 min
[2] = in vitro metabolic stability in mouse plasma; conditions: for PLASMA STABILITY Mouse: prodrug remaining within the 60 min incubation time; for stability in mouse plasma (in words): 30 min and 60 min
[3] = in vitro metabolic stability in human plasma; conditions: for PLASMA STABILITY Human: prodrug remaining within the 60 min incubation time; for stability in human plasma (in words): 30 min and 60 min
[4] = DON release in mouse plasma after oral administration of prodrugs; format: in vivo; conditions: mice, p.o., 30 minutes and 5 hours after dosing, compared to DON
Description: Procedure for Pharmacokinetic analysis for DON release from its prodrugs: DON is extracted from samples (50 μL) with 250 μL methanol containing Glutamate-d5 (10 μM ISTD) by vortexing in low retention tubes. Samples are centrifuged at 16,000×g for 5 minutes to precipitate proteins. Supernatants (200 μL) are moved to new tube and dried at 45° C. under vacuum (approximately 1 hour). To each tube, 50 μL of 0.2 M sodium bicarbonate buffer (pH 9.0) and 100 μL dabsyl chloride stock is added. After vortexing, samples are incubated at 60° C. for 15 minutes to derivatize.

[5] = chemical stability (cyclization to diazo-imine, acidic pH); format: physicochemical
Source text: Chemistry. Scheme 9 outlines the synthesis and characterization of the ester based prodrugs 20 and 3 of DON and their subsequent cyclization to novel diazo-imines 9a-b. The pyroglutamate esters 6a-b (D'Andrea, et al., 2008) were FMOC-protected to afford compounds 18 and 1. Formation of the diazoketones 19 and 2 was accomplished using TMS diazomethane in good yield. Rapid deprotection with piperidine afforded the ester based prodrugs 20 and 3. Unexpectedly […] cyclization was observed even under mild conditions (e.g. stirring in chloroform at room temperature) affording the novel diazo-imines 9a and 9b. It is believed that this is the first example of this functional group being described in the chemical literature.

[6] = plasma and CSF pharmacokinetics of DON in swine after i.v. infusion; format: in vivo, Göttingen×Yucutan miniature swine; conditions: 60 min post-administration
Description: Compound: Compound 47 was dissolved in a sterile saline containing 5% ethanol and 5% Tween 80 on the date of administration.
Swine: Swine studies were conducted under a protocol approved by the Johns Hopkins Animal Care and Use Committee. Adult, female Göttingen×Yucutan miniature swine (Massachusetts General Hospital, MA) were housed in Johns Hopkins University facilities accredited by the Association for Assessment and Accreditation of Laboratory Animal Care International in compliance with the Animal Welfare Act, Animal Welfare Regulations, and the Public Health Service Policy on the Humane Care and Use of Laboratory Animals. Animals were maintained on a 14-h light and 10-h dark schedule, provided ad libitum water and a commercial miniswine diet (Teklad, Madison, WI) with environmental enrichment (fruit/vegetables) twice daily.

[7] = in vitro metabolic stability in dog plasma; format: in vitro ADME; conditions: 30 min and 60 min
Description: Percentage remaining was calculated in the following manner.

[8] = in vitro metabolic stability in pig plasma; conditions: 30 min and 60 min
[9] = in vitro liver microsomal stability, human; conditions: human microsomes
[10] = in vitro liver microsomal stability, pig; conditions: pig microsomes
MC38 colon cancer = assay: MC38 tumor model; format: in vivo, mice; conditions: single agent
[11] = 5-day i.v. toxicity comparison of DON and 38 in pigs; format: in vivo; conditions: at equivalent PBMC exposures

Compound: CC(C)OC(=O)C(N)CCC(=O)C=[N+]=[N-] (centres unmarked) [Compound 3, Isopropyl 2-amino-6-diazo-5-oxohexanoate]
- chemical stability (in words) [5]: chemical instability; also recorded: unstable

Compound: Cc1oc(=O)oc1COC(=O)N[C@@H](CCC(=O)C=[N+]=[N-])C(=O)OC(C)C [Compound 13, 1-Methylethyl 6-(1λ^5-diazynylidene)-N-{[(5-methyl-2-oxo-1,3-dioxol-4-yl)methoxy]carbonyl}-5-oxo-L-norleucinate]
- PLASMA STABILITY Monkey [1]: 0%
- PLASMA STABILITY Mouse [2]: 0%
- PLASMA STABILITY Human [3]: 0%

Compound: CC(C)OC(=O)[C@H](CCC(=O)C=[N+]=[N-])NC(=O)OC(OC(=O)C(C)(C)C)c1ccccc1 (some centres unmarked) [Compound 47, Isopropyl 6-diazo-5-oxo-2-(((phenyl(pivaloyloxy)methoxy)carbonyl)amino) hexanoate]
- CSF delivery of DON (in words) [6]: substantially higher amounts of DON to the CSF; also recorded: enhanced CSF delivery of DON
- CSF:plasma ratio of DON (in words) [6]: increased CSF-to-plasma ratios; also recorded: enhanced CSF:plasma ratio

Compound: CCOC(=O)[C@@H](N)CCC(=O)C=[N+]=[N-] [Compound 20, Ethyl 2-amino-6-diazo-5-oxohexanoate]
- chemical stability (in words) [5]: chemical instability; also recorded: unstable

Compound: CC(C)C[C@H](N)C(=O)N[C@@H](CCC(=O)C=[N+]=[N-])C(=O)OC(C)C [Compound 9, Isopropyl 2-(2-amino-4-methylpentanamido)-6-diazo-5-oxohexanoate]
- stability in monkey plasma (in words) [1]: unstable
- PLASMA STABILITY Monkey [1]: 1%
- stability in dog plasma (in words) [7]: unstable
- stability in mouse plasma (in words) [2]: unstable
- PLASMA STABILITY Mouse [2]: 0%
- stability in pig plasma (in words) [8]: unstable
- liver microsomal stability (in words) [9]: moderate-high stability
- liver microsomal stability (in words) [10]: moderate-high stability
- stability in human plasma (in words) [3]: unstable
- PLASMA STABILITY Human [3]: 1%

Compound: CCOC(=O)[C@@H]1CCC(C=[N+]=[N-])=N1 [Compound 9a, Ethyl 5-(diazomethyl)-3,4-dihydro-2H-pyrrole-2-carboxylate]
- chemical stability (in words) [5]: chemically stable even at acidic pH

Compound: CC(=O)N[C@@H](Cc1c[nH]c2ccccc12)C(=O)N[C@@H](CCC(=O)C=[N+]=[N-])C(=O)OC(C)C [Compound 60, Isopropyl 2-(2-acetamido-3-(1H-indol-3-yl)propanamido)-6-diazo-5-oxohexanoate]
- liver microsomal stability (in words) [9]: moderate-high stability
- liver microsomal stability (in words) [10]: moderate-high stability
- antitumor efficacy in MC38 tumor model (in words) (MC38 colon cancer): promoted tumor regression

Compound: CC(C)OC(=O)C(CCC(=O)C=[N+]=[N-])NP(=O)(NC(CCC(=O)C=[N+]=[N-])C(=O)OC(C)C)Oc1ccccc1 (centres unmarked) [Compound 7, 1-methylethyl 2,6-bis[4-(1λ^5-diazynylidene)-3-oxobutyl]-9-methyl-7-oxo-4-phenoxy-8-oxa-3,5-diaza-4-phosphadecan-1-oate 4-oxide]
- stability in monkey plasma (in words) [1]: stable
- stability in mouse plasma (in words) [2]: unstable
- stability in pig plasma (in words) [8]: stable
- stability in human plasma (in words) [3]: stable

Compound: CCOC(=O)[C@H](CCC(=O)C=[N+]=[N-])NC(=O)OCc1oc(=O)oc1C [Compound 36, Ethyl 6-diazo-2-((((5-methyl-2-oxo-1,3-dioxol-4-yl)methoxy)carbonyl)amino)-5-oxohexanoate]
- PLASMA STABILITY Monkey [1]: 0%
- PLASMA STABILITY Mouse [2]: 0%
- PLASMA STABILITY Human [3]: 0%

Compound: CC(C)OC(=O)[C@@H]1CCC(C=[N+]=[N-])=N1 (stereo in doubt) [Compound 9b, Isopropyl 5-(diazomethyl)-3,4-dihydro-2H-pyrrole-2-carboxylate]
- chemical stability (in words) [5]: chemically stable even at acidic pH

Compound: CC(C)OC(=O)[C@H](CCC(=O)C=[N+]=[N-])NP(=O)(Oc1ccccc1)Oc1ccccc1 [Compound 4, Isopropyl 6-diazo-2-((diphenoxyphosphoryl)amino)-5-oxohexanoate]
- stability in monkey plasma (in words) [1]: stable
- stability in mouse plasma (in words) [2]: unstable
- stability in pig plasma (in words) [8]: stable
- stability in human plasma (in words) [3]: stable

Compound: CC(C)OC(=O)[C@H](CCC(=O)C=[N+]=[N-])NC(=O)OCOC(=O)C(C)(C)C [Compound 42, Isopropyl 6-diazo-5-oxo-2-((((pivaloyloxy)methoxy)carbonyl)amino) hexanoate]
- PLASMA STABILITY Monkey [1]: 0%
- PLASMA STABILITY Mouse [2]: 0%
- PLASMA STABILITY Human [3]: 9%

Compound: CCOC(=O)[C@H](CCC(=O)C=[N+]=[N-])NC(=O)[C@@H](N)Cc1c[nH]c2ccccc12 [Compound 34, Ethyl 2-(2-amino-3-(1H-indol-3-yl)propanamido)-6-diazo-5-oxohexanoate]
- PLASMA STABILITY Monkey [1]: 4%
- PLASMA STABILITY Mouse [2]: 0%
- PLASMA STABILITY Human [3]: 12%

Compound: CC(C)OC(=O)[C@H](CCC(=O)C=[N+]=[N-])NC(=O)[C@@H](N)Cc1c[nH]c2ccccc12 (stereo in doubt) [Compound 38, Isopropyl 2-(2-amino-3-(1H-indol-3-yl)propanamido)-6-diazo-5-oxohexanoate]
- DON delivered to GI tissues (in words) [11]: less DON to GI tissues
- PLASMA STABILITY Monkey [1]: 10%
- PLASMA STABILITY Mouse [2]: 0%
- liver microsomal stability (in words) [9]: moderate-high stability
- liver microsomal stability (in words) [10]: moderate-high stability
- PLASMA STABILITY Human [3]: 30%

Other lines, results leading:

- PLASMA STABILITY Monkey [1]: 75%
- PLASMA STABILITY Mouse [2]: 0%
- PLASMA STABILITY Human [3]: 88%
Compound: CCOC(=O)[C@H](CCC(=O)C=[N+]=[N-])NC(=O)OC(C)OC(=O)C(C)(C)C (mixture of isomers) [Compound 32, Ethyl 6-diazo-2-(((1-(pivaloyloxy)ethoxy)carbonyl)amino)-5-oxohexanoate]

- DON release / exposure in mouse plasma upon oral administration (in words) [4]: little DON release
Compound: C[C@H](N)C(=O)N[C@@H](CCC(=O)C=[N+]=[N-])C(=O)O [Compound 23, 2-(2-Aminopropanamido)-6-diazo-5-oxohexanoic acid]

- DON release / exposure in mouse plasma upon oral administration (in words) [4]: some release
Compound: CC(C)C[C@H](N)C(=O)N[C@@H](CCC(=O)C=[N+]=[N-])C(=O)O [Compound 26, 2-(2-Amino-4-methylpentanamido)-6-diazo-5-oxohexanoic acid triethylammonium salt]

- DON release / exposure in mouse plasma upon oral administration (in words) [4]: little DON release
Compound: CC(OC(=O)N[C@@H](CCC(=O)C=[N+]=[N-])C(=O)O)OC(=O)C(C)C (some centres unmarked) [Compound 29, 6-Diazo-2-(((1-(isobutyryloxy)ethoxy)carbonyl)amino)-5-oxohexanoic acid triethylammonium salt]

- DON release / exposure in mouse plasma upon oral administration (in words) [4]: below the limit of quantitation
Compound: C=CCOC(=O)N[C@@H](CCC(=O)C=[N+]=[N-])C(=O)O [LTP 073]

- DON release / exposure in mouse plasma upon oral administration (in words) [4]: little DON release
Compound: CC(OC(=O)N[C@@H](CCC(=O)C=[N+]=[N-])C(=O)O)OC(=O)C(C)(C)C (some centres unmarked) [Compound 30, 6-Diazo-2-(((1-(pivaloyloxy)ethoxy)carbonyl)amino)-5-oxohexanoic acid triethylammonium salt]
